# Data reported in US4774238A, “Heterocyclic-methylene-penems” (Beecham Group plc, priority 1985, dated 1988).
# Assay: Solubility of the penem free acid in water
# Assay type: physicochemical
compound,measurement,value
"Cn1cc(/C=C2/C(=O)N3C(C(=O)O)=CS[C@H]23)nn1 [penem free acid, Crystalline (5R) (Z)-6-(1-Methyl-1,2,3-triazol-4-ylmethylene)penem-3-carboxylic acid]",solubility in water,only sparingly soluble
